Source: patent publication US8952024B2, “Herbicidal pyrimidone derivatives” (E I du Pont de Nemours and Company, priority 2009, dated 2015)

Key:
Assay in all cases: Test B pre-/postemergence plant response
Format in all cases: in vivo
wild oat (Avena fatua) = test system: wild oat (Avena fatua)
Method in brief: (§1)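 Seeds sown in loam–sand blend were treated preemergence, and plants at 2–18 cm (1- to 4-leaf stage) in peat-based medium were treated postemergence; compounds were formulated in non-phytotoxic solvent with surfactant. After 13–15 days in greenhouse, response was visually rated against controls, 0 (no effect) to 100 (complete control).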

[1] = test system: morningglory (Ipomoea coccinea)
Method in brief: as §1

[2] = test system: wheat (Triticum aestivum)
Method in brief: as §1

[3] = test system: blackgrass (Alopecurus myosuroides); details: for Blackgrass plant response rating (0 to 100 scale): 0 is no effect
Method in brief: as §1

[4] = test system: ragweed (common ragweed, Ambrosia elatior)
Method in brief: as §1

kochia (Kochia scoparia) = test system: kochia (Kochia scoparia)
Method in brief: as §1

[5] = test system: downy bromegrass (Bromus tectorum); details: for Bromegrass, Downy plant response rating (0 to 100 scale): 0 is no effect
Method in brief: as §1

[6] = test system: large crabgrass (Digitaria sanguinalis)
Method in brief: as §1

[7] = test system: woolly cupgrass (Eriochloa villosa)
Method in brief: as §1

[8] = test system: bermudagrass (Cynodon dactylon); details: for Bermudagrass plant response rating (0 to 100 scale): 0 is no effect
Method in brief: as §1

[9] = test system: Surinam grass (Brachiaria decumbens)
Method in brief: as §1

[10] = test system: Italian ryegrass (Lolium multiflorum)
Method in brief: as §1

[11] = test system: cocklebur (Xanthium strumarium)
Method in brief: as §1

[12] = 31 g ai/ha, postemergence, scale 0 to 100, 0 is no effect, 100 is complete control
[13] = 62 g ai/ha, postemergence, 0 is no effect, 100 is complete control, 13 to 15 days
[14] = Postemergence, 250 g ai/ha, scale 0 to 100 (0 no effect, 100 complete control)
[15] = 62 g ai/ha, postemergence, 100 is complete control, 13 to 15 days
[16] = Postemergence, 125 g ai/ha, visual rating after 13 to 15 days, scale 0 (no effect) to 100 (complete control)
[17] = Postemergence, 31 g ai/ha, 0 to 100 scale (0 no effect, 100 complete control)
[18] = Postemergence, 125 g ai/ha, scale 0 to 100 (0 no effect, 100 complete control)
[19] = Postemergence, 250 g ai/ha, scale 0 to 100 (0 no effect, 100 complete control), 13 to 15 days
[20] = Postemergence, 62 g ai/ha, scale 0 to 100 (0 no effect, 100 complete control)

## COCCn1c(-c2ccccc2)ncc(C(=O)C2=C(O)CCCC2=O)c1=O [Compound 85]
Wild oat (Avena fatua); [12]
  Plant response rating, Oat, Wild: 5
Wild oat (Avena fatua); [13]
  Oat, Wild plant response rating (0 to 100 scale): 25
Wild oat (Avena fatua); [14]
  Plant response rating, Oat, Wild: 60
[1]; [12]
  Plant response rating, Morningglory: 95
[1]; [13]
  Morningglory plant response rating (0 to 100 scale): 100
[1]; [14]
  Plant response rating, Morningglory: 100
[2]; [12]
  Plant response rating, Wheat: 0
[2]; [13]
  Wheat plant response rating (0 to 100 scale): 5
[2]; [14]
  Plant response rating, Wheat: 35
[3]; [12]
  Plant response rating, Blackgrass: 5
[3]; [15]
  Blackgrass plant response rating (0 to 100 scale): 35
[3]; [16]
  Plant response rating, Blackgrass: 35
[3]; [14]
  Plant response rating, Blackgrass: 50
[4]; [12]
  Plant response rating, Ragweed: 80
[4]; [13]
  Ragweed plant response rating (0 to 100 scale): 85
[4]; [14]
  Plant response rating, Ragweed: 98
Kochia (Kochia scoparia); [12]
  Plant response rating, Kochia: 75
Kochia (Kochia scoparia); [13]
  Kochia plant response rating (0 to 100 scale): 85
Kochia (Kochia scoparia); [14]
  Plant response rating, Kochia: 90
[5]; [12]
  Plant response rating, Bromegrass, Downy: 0
[5]; [15]
  Bromegrass, Downy plant response rating (0 to 100 scale): 5
[5]; [16]
  Plant response rating, Bromegrass, Downy: 25
[5]; [14]
  Plant response rating, Bromegrass, Downy: 30
[6]; [12]
  Plant response rating, Crabgrass, Large: 90
[6]; [13]
  Crabgrass, Large plant response rating (0 to 100 scale): 90
[6]; [16]
  Plant response rating, Crabgrass, Large: 90
[6]; [14]
  Plant response rating, Crabgrass, Large: 95
[7]; [12]
  Plant response rating, Cupgrass, Woolly: 75
[7]; [13]
  Cupgrass, Woolly plant response rating (0 to 100 scale): 85
[7]; [16]
  Plant response rating, Cupgrass, Woolly: 90
[7]; [14]
  Plant response rating, Cupgrass, Woolly: 90
[8]; [12]
  Plant response rating, Bermudagrass: 85
[8]; [15]
  Bermudagrass plant response rating (0 to 100 scale): 85
[8]; [16]
  Plant response rating, Bermudagrass: 90
[8]; [14]
  Plant response rating, Bermudagrass: 90
[9]; [12]
  Plant response rating, Surinam Grass: 75
[9]; [13]
  Surinam Grass plant response rating (0 to 100 scale): 85
[9]; [14]
  Plant response rating, Surinam Grass: 85
[10]; [12]
  Plant response rating, Ryegrass, Italian: 0
[10]; [13]
  Ryegrass, Italian plant response rating (0 to 100 scale): 10
[10]; [14]
  Plant response rating, Ryegrass, Italian: 45
[11]; [12]
  Plant response rating, Cocklebur: 95
[11]; [13]
  Cocklebur plant response rating (0 to 100 scale): 95
[11]; [16]
  Plant response rating, Cocklebur: 98
[11]; [14]
  Plant response rating, Cocklebur: 98

## Cc1ccc(Cl)cc1-n1c(-c2cccc(F)c2)ncc(C(=O)C2=C(O)CCCC2=O)c1=O [Compound 184]
Wild oat (Avena fatua); [17]
  Plant response rating, Oat, Wild: 40
Wild oat (Avena fatua); [18]
  Plant response rating, Oat, Wild: 80
Wild oat (Avena fatua); [19]
  Plant response rating, Oat, Wild: 98
[1]; [17]
  Plant response rating, Morningglory: 40
[1]; [18]
  Plant response rating, Morningglory: 100
[1]; [19]
  Plant response rating, Morningglory: 100
[2]; [17]
  Plant response rating, Wheat: 30
[2]; [18]
  Plant response rating, Wheat: 55
[2]; [19]
  Plant response rating, Wheat: 60
[3]; [15]
  Blackgrass plant response rating (0 to 100 scale): 35
[3]; [17]
  Plant response rating, Blackgrass: 30
[3]; [18]
  Plant response rating, Blackgrass: 40
[3]; [19]
  Plant response rating, Blackgrass: 50
Kochia (Kochia scoparia); [17]
  Plant response rating, Kochia: 0
Kochia (Kochia scoparia); [18]
  Plant response rating, Kochia: 5
Kochia (Kochia scoparia); [19]
  Plant response rating, Kochia: 10
[5]; [15]
  Bromegrass, Downy plant response rating (0 to 100 scale): 50
[5]; [17]
  Plant response rating, Bromegrass, Downy: 40
[5]; [18]
  Plant response rating, Bromegrass, Downy: 50
[5]; [19]
  Plant response rating, Bromegrass, Downy: 60
[6]; [17]
  Plant response rating, Crabgrass, Large: 100
[6]; [18]
  Plant response rating, Crabgrass, Large: 100
[6]; [19]
  Plant response rating, Crabgrass, Large: 100
[7]; [17]
  Plant response rating, Cupgrass, Woolly: 75
[7]; [18]
  Plant response rating, Cupgrass, Woolly: 100
[7]; [19]
  Plant response rating, Cupgrass, Woolly: 100
[8]; [15]
  Bermudagrass plant response rating (0 to 100 scale): 100
[8]; [17]
  Plant response rating, Bermudagrass: 98
[8]; [18]
  Plant response rating, Bermudagrass: 100
[8]; [19]
  Plant response rating, Bermudagrass: 100
[9]; [17]
  Plant response rating, Surinam Grass: 80
[9]; [18]
  Plant response rating, Surinam Grass: 100
[9]; [19]
  Plant response rating, Surinam Grass: 100
[10]; [17]
  Plant response rating, Ryegrass, Italian: 20
[10]; [18]
  Plant response rating, Ryegrass, Italian: 45
[10]; [19]
  Plant response rating, Ryegrass, Italian: 60
[11]; [17]
  Plant response rating, Cocklebur: 100
[11]; [18]
  Plant response rating, Cocklebur: 100
[11]; [19]
  Plant response rating, Cocklebur: 100

## Cc1cc(-n2c(-c3cccc(F)c3)ncc(C(=O)C3=C(O)CCCC3=O)c2=O)ccc1F [Compound 191]
Wild oat (Avena fatua); [17]
  Plant response rating, Oat, Wild: 50
Wild oat (Avena fatua); [20]
  Plant response rating, Oat, Wild: 60
Wild oat (Avena fatua); [18]
  Plant response rating, Oat, Wild: 70
Wild oat (Avena fatua); [19]
  Plant response rating, Oat, Wild: 80
[1]; [17]
  Plant response rating, Morningglory: 40
[1]; [20]
  Plant response rating, Morningglory: 65
[1]; [18]
  Plant response rating, Morningglory: 90
[1]; [19]
  Plant response rating, Morningglory: 100
[2]; [17]
  Plant response rating, Wheat: 35
[2]; [20]
  Plant response rating, Wheat: 40
[2]; [18]
  Plant response rating, Wheat: 55
[2]; [19]
  Plant response rating, Wheat: 65
[3]; [17]
  Plant response rating, Blackgrass: 30
[3]; [20]
  Plant response rating, Blackgrass: 45
[3]; [18]
  Plant response rating, Blackgrass: 50
[3]; [19]
  Plant response rating, Blackgrass: 60
Kochia (Kochia scoparia); [17]
  Plant response rating, Kochia: 5
Kochia (Kochia scoparia); [20]
  Plant response rating, Kochia: 10
Kochia (Kochia scoparia); [18]
  Plant response rating, Kochia: 25
Kochia (Kochia scoparia); [19]
  Plant response rating, Kochia: 35
[5]; [17]
  Plant response rating, Bromegrass, Downy: 35
[5]; [20]
  Plant response rating, Bromegrass, Downy: 40
[5]; [18]
  Plant response rating, Bromegrass, Downy: 50
[5]; [19]
  Plant response rating, Bromegrass, Downy: 75
[6]; [17]
  Plant response rating, Crabgrass, Large: 85
[6]; [20]
  Plant response rating, Crabgrass, Large: 100
[6]; [18]
  Plant response rating, Crabgrass, Large: 100
[6]; [19]
  Plant response rating, Crabgrass, Large: 100
[7]; [17]
  Plant response rating, Cupgrass, Woolly: 85
[7]; [20]
  Plant response rating, Cupgrass, Woolly: 90
[7]; [18]
  Plant response rating, Cupgrass, Woolly: 90
[7]; [19]
  Plant response rating, Cupgrass, Woolly: 98
[8]; [17]
  Plant response rating, Bermudagrass: 100
[8]; [20]
  Plant response rating, Bermudagrass: 100
[8]; [18]
  Plant response rating, Bermudagrass: 100
[8]; [19]
  Plant response rating, Bermudagrass: 100
[9]; [17]
  Plant response rating, Surinam Grass: 70
[9]; [20]
  Plant response rating, Surinam Grass: 85
[9]; [18]
  Plant response rating, Surinam Grass: 90
[9]; [19]
  Plant response rating, Surinam Grass: 98
[10]; [17]
  Plant response rating, Ryegrass, Italian: 40
[10]; [20]
  Plant response rating, Ryegrass, Italian: 40
[10]; [18]
  Plant response rating, Ryegrass, Italian: 50
[10]; [19]
  Plant response rating, Ryegrass, Italian: 50
[11]; [17]
  Plant response rating, Cocklebur: 90
[11]; [20]
  Plant response rating, Cocklebur: 98
[11]; [18]
  Plant response rating, Cocklebur: 98
[11]; [19]
  Plant response rating, Cocklebur: 100
